Structures are written as SMILES. Where only a bound is given, the exact number is not on record here.

One may read the IC50 as the concentration that gives 50% inhibition. Usually melting point stands for the temperature of the solid-liquid transition.

For data set [1], the system named is MDA-MB-231 human breast adenocarcinoma cell line. Nature of the data set: WST-1 cell viability assay, MDA-MB-231. Format: cell-based. Conditions: Homo sapiens, MDA-MB-231; WST-1, 24 h treatment, mean ± S.D of three independent experiments. From the text:
(§1) The synthesized compounds were screened for their cytotoxicity on five cancer cell lines, namely SK-OV-3, MCF-7, MDA-MB-231, HCT-116 and RKO, using a WST colorimetric assay. The assay principle is based upon the reduction of the tetrazolium salt WST-1 to formazan by cellular mitochondrial dehydrogenases present in viable cells. […] Among the latter compounds the benzohydrazide derivative 9a emerged with the lowest IC50 in this study against MCF-7 cells compared to 5-FU. […] Based on the fact that 9a had less cytotoxic effects on normal breast epithelial cells it was subjected to further studies.
(§2) The following cell lines were used for the screening stage, obtained from the American Type Culture Collection (ATCC, Manassas, VA, USA); SK-OV-3 (HTB-77), MCF-12A (ATCC CRL-10782), MDA-MB-231 (ATCC HTB-26), HCT-116 (CCL-247), RKO (CRL-2577) and sub-culturing of the above cell lines was conducted in 75 cm^2 flasks. The old culture media was removed and discarded after assessing the confluency of the cells and the cells were rinsed with 2–3 mL diluted trypsin (1×) (trypsin/EDTA solution consists of 0.025% trypsin and 0.01% EDTA in PBS), for about 5 minutes for complete detachment. The cells were observed under the inverted microscope until the cell layer is completely dispersed. 75 cm^2 flasks were prepared and 16 mL of DMEM media for SK-OV-3, MCF-7, MDA-MB-231, (DMEM 4500 mg glucose) and RPMI media for HCT-116 were added to each flask. The cells were aspirated gently and added to the flasks. DMEM 4500 mg/L high glucose with 10% FBS, 5% streptomycin and penicillin, RPMI 1640 (prepared by adding 5% heat-inactivated FCS and 2 mm glutamine) were used. DMEM was also used for MCF-12A cells with the addition of human epidermal growth factor 20 ng/mL, insulin 0.01 mg/mL and hydrocortisone 500 ng/mL.
(§3) The synthesized compounds were screened for their anti-proliferative activity using 5-FU (F6627-1G, Sigma-Aldrich, St. Louis, MO, USA) as reference compound. A concentration of 0.4% DMSO was used in all experiment after ensuring 100% viability of the cell lines with this concentration. A 25 mM stock concentration of all compounds was prepared for further studies and analysis.
(§4) Cells were trypsinized and placed in a 15 mL Falcon tube, the cells were centrifuged for 3 min at 1000 rpm. Trypsin is decanted using a sterile pipette and then the pellet is loosened by flicking the tube few times then 5–10 mL warm DMEM or RPMI were added to the Falcon tube and the pellet is resuspended. Cell count was done next by taking 10 μL of the suspension into the cell counting slide and read under 10× cells/mL. A cell stock of 50,000 cells/mL was prepared for the 96 wells. Cells (100 μL) were added to each well using a sterile pipette each time to ensure consistency. The experiment was planned ahead of time using excel sheet, 3–6 wells were reserved as blank media while 3–6 wells for vehicle (DMSO). The plate was incubated for 24 h for compound treatment step. DMEM media was used to prepare different dilutions of the compounds. The old DMEM media was removed from the wells using sterile pipette in the hood and the media was replaced with 100 μL media with each compound. The plate was incubated for 24 h. After 24 h incubation, WST-1 reagent (Sigma) was added to each well and then the plate was incubated for 1 h before measuring the absorbance using VICTOR™ Multilabel Plate Reader (Perkin Elmer, Beaconsfield, UK). The absorbance of the colored solution can be quantified by measuring at a certain wavelength (usually between 500–600 nm), in this experiment the first reading was conducted at 540 nm and the second reading at 690 nm for the reference wavelength. The percentage of cell viability was determined as the ratio of the absorbance of the sample vs the control. Three independent experiments were performed. […] 5-Florouracil (Sigma-Aldrich, F6627-1G) was used as reference standard.
(In general: Formazan colour is commonly taken as a measure of viable cells.)

The test system of data set [2] is SK-OV-3 human ovarian carcinoma cell line. Nature of the data set: WST-1 cell viability assay, SK-OV-3. Format: cell-based. Conditions: Homo sapiens, SK-OV-3; WST-1, 24 h treatment, mean ± S.D of three independent experiments.
Source text: as §1, §2, §3, §4

Data set [3] has as its system MCF-7 human breast adenocarcinoma cell line. Kind of data set: WST-1 cell viability assay, MCF-7. Format: cell-based. Conditions: Homo sapiens, MCF7, 24 h, WST-1, 24 h treatment, mean ± S.D of three independent experiments.
Source text: as §1, §2, §3, §4

Data set [4] relates to HCT-116 human colon carcinoma cell line. Nature of the data set: WST-1 cell viability assay, HCT-116. Format: cell-based. The note with it: Homo sapiens, HCT-116; WST-1, 24 h treatment, mean ± S.D of three independent experiments.
Source text: as §1, §2, §3, §4

For data set [5], the system named is RKO human colon carcinoma cell line. Nature of the data set: WST-1 cell viability assay, RKO. Format: cell-based. Conditions: Homo sapiens, Colon carcinoma cell; WST-1, 24 h treatment, mean ± S.D of three independent experiments.
Source text: as §1, §2, §3, §4

`COc1ccc(-c2cc(-c3ccc(OC)c(OC)c3)c(C#N)c(OCC(=O)n3nc(C)cc3C)n2)cc1OC` [Compound 11, 4,6-Bis(3,4-dimethoxyphenyl)-2-(2-(3,5-dimethyl-1H-pyrazol-1-yl)-2-oxoethoxy)pyridine-3-carbonitrile]: the melting point fell in the range of 161 to 163 °C. In data set [1], the IC50 is over 50 µM. Also, in data set [2], the 50% inhibitory concentration (IC50) worked out at 26.2 ± 0.95 µM. Moreover, the IC50 in data set [3] is over 50 µM. The molecule also had an IC50 in data set [4] of 33.9 ± 0.87 µM. In data set [5], this molecule registered an IC50 of over 50 µM.

As to `COc1ccc(S(=O)(=O)NNC(=O)COc2nc(-c3ccc(OC)c(OC)c3)cc(-c3ccc(OC)c(OC)c3)c2C#N)cc1` [Compound 10b, N'-[2-(3-cyano-4,6-bis(3,4-dimethoxyphenyl)pyridin-2-yloxy)acetyl]-4-methoxybenzenesulfohydrazide], the melting point lay within 190 to 192 °C. Also, in data set [1], half-maximal inhibition (IC50) required 22.4 ± 1.71 µM. This molecule also displayed an IC50 in data set [2] of 9.17 ± 0.38 µM. In addition, the IC50 in data set [3] was 8.12 ± 0.47 µM. Moreover, the midpoint of inhibition in data set [4], the IC50, lay at 16.1 ± 1.07 µM. Further, the IC50 in data set [5] worked out at 15.7 ± 0.86 µM.

Take `COc1ccc(-c2cc(-c3ccc(OC)c(OC)c3)c(C#N)c(OCC(C)=O)n2)cc1OC` [Compound 4d, 4,6-bis(3,4-Dimethoxyphenyl)-2-(2-oxopropoxy)pyridine-3-carbonitrile]: the melting point lay in the range of 110 to 112 °C. This molecule showed an IC50 in data set [1] of 35.8 ± 0.96 µM. This molecule also yielded an IC50 in data set [2] of 25.2 ± 0.76 µM. In data set [3], it took 20.3 ± 0.98 µM to reach half-maximal inhibition (IC50). The same molecule registered an IC50 in data set [4] of 13.1 ± 0.84 µM. In addition, 17.4 ± 0.44 µM corresponded to half-maximal inhibition in data set [5] (IC50).

`COc1ccc(-c2cc(-c3ccc(OC)c(OC)c3)c(C#N)c(OCC(=O)NNS(=O)(=O)c3ccccc3)n2)cc1OC` [Compound 10a, N'-[2-(3-cyano-4,6-bis(3,4-dimethoxyphenyl)pyridin-2-yloxy)acety]benzenesulfohydrazide]: the melting point was 120 to 122 °C. This molecule also gave an IC50 in data set [1] of 26.8 ± 0.33 µM. In data set [2], inhibition was half-maximal at 11.34 ± 0.02 µM (IC50). Besides, in data set [3], the IC50 came out at 13.4 ± 0.98 µM. In data set [4], this molecule yielded an IC50 of 21.8 ± 0.85 µM. In addition, in data set [5], the IC50 is 12.1 ± 1.26 µM.

Take `COc1ccc(-c2cc(-c3ccc(OC)c(OC)c3)c(C#N)c(OCC(=O)n3nc(SC)c(C#N)c3N)n2)cc1OC` [Compound 13b, 2-{2-[5-Amino-4-cyano-3-(methylsulfanyl)-1H-pyrazol-1-yl]-2-oxoethoxy}-4,6-bis(3,4-dimethoxyphenyl)-pyridine-3-carbonitrile]: the melting point was in the range of 202 to 204 °C. In addition, the IC50 in data set [1] was over 50 µM. The IC50 in data set [2] is over 50 µM. Moreover, in data set [3], the IC50 was over 50 µM. The IC50 in data set [4] turned out to be 30.1 ± 0.76 µM. The molecule further came in with an IC50 in data set [5] of over 50 µM.

With `COC(=O)c1c(SC)nn(C(=O)COc2nc(-c3ccc(OC)c(OC)c3)cc(-c3ccc(OC)c(OC)c3)c2C#N)c1N` [Compound 13a, Methyl 5-amino-1-{[(3-cyano-4,6-bis(3,4-dimethoxyphenyl)pyridin-2-yl)oxy]acetyl}-3-(methylsulfanyl)-1H-pyrazole-4-carboxylate], the melting point was in the range of 184 to 186 °C. For the same molecule, in data set [1], the IC50 was over 50 µM. Besides, the IC50 in data set [2] was over 50 µM. The IC50 in data set [3] is over 50 µM. In data set [4], this molecule had an IC50 of 36.3 ± 1.71 µM. The molecule further displayed an IC50 in data set [5] of over 50 µM.

In turn, `COc1ccc(-c2cc(-c3ccc(OC)c(OC)c3)c(C#N)c(OCC(=O)NNC(=S)SCCN3CCOCC3)n2)cc1OC` [Compound 7c, 2-Morpholinoethyl-2-[2-(3-cyano-4,6-bis(3,4-dimethoxyphenyl)pyridin-2-yloxy)acetyl]hydrazinecarbo-dithioate] came in with a melting point of 158 to 160 °C. The molecule also displayed an IC50 in data set [1] of 31.7 ± 0.89 µM. This molecule also returned an IC50 in data set [2] of 5.12 ± 0.11 µM. 7.1 ± 0.44 µM corresponded to half-maximal inhibition in data set [3] (IC50). In data set [4], this molecule showed an IC50 of 26.9 ± 0.97 µM. Besides, inhibition in data set [5] was half-maximal at 20.3 ± 0.76 µM (IC50).

The molecule `COc1ccc(-c2cc(-c3ccc(OC)c(OC)c3)c(C#N)c(OCC(=O)N3N=C(C)CC3=O)n2)cc1OC` [Compound 12, 4,6-bis(3,4-Dimethoxyphenyl)-2-(2-(3-methyl-5-oxo-4,5-dihydro-1H-pyrazol-1-yl)-2-oxoethoxy)pyridine-3-carbonitrile] had a melting point of 189 to 190 °C. In addition, the IC50 in data set [1] was over 50 µM. The molecule further gave an IC50 in data set [2] of 20.3 ± 1.72 µM. The concentration for half-maximal inhibition (IC50) in data set [3] was over 50 µM. In data set [4], this molecule displayed an IC50 of 40.4 ± 1.76 µM. This molecule showed an IC50 in data set [5] of over 50 µM.

Regarding `COc1ccc(C(=O)NNC(=O)COc2nc(-c3ccc(OC)c(OC)c3)cc(-c3ccc(OC)c(OC)c3)c2C#N)cc1` [Compound 9b, N'-[2-(3-cyano-4,6-bis(3,4-dimethoxyphenyl)pyridin-2-yloxy)acetyl]-4-methoxybenzo hydrazide], the melting point was 170 to 172 °C. In data set [1], half-maximal inhibition (IC50) was put at 19.3 ± 0.86 µM. The same molecule came in with an IC50 in data set [2] of 7.08 ± 0.16 µM. The molecule further yielded an IC50 in data set [3] of 10.2 ± 0.92 µM. For the same molecule, 17.9 ± 0.74 µM corresponded to half-maximal inhibition in data set [4] (IC50). Also, the IC50 in data set [5] was 9.95 ± 1.06 µM.

Take `COc1ccc(-c2cc(-c3ccc(OC)c(OC)c3)c(C#N)c(OCC(=O)NN=Cc3cc(OC)c(OC)c(OC)c3)n2)cc1OC` [Compound 8c, 2-[3-Cyano-4,6-bis(3,4-dimethoxyphenyl)pyridin-2-yl]oxy-N'-(3,4,5-trimethoxybenzylidene)acetohydrazide]: the melting point lay in the range of 232 to 234 °C. The IC50 in data set [1] worked out at 20.3 ± 1.06 µM. In addition, the IC50 in data set [2] was found to be 12.1 ± 0.98 µM. In addition, the IC50 in data set [3] was determined as 15.3 ± 0.74 µM. In data set [4], this molecule gave an IC50 of 25.9 ± 0.83 µM. For the same molecule, the IC50 in data set [5] was found to be 16.3 ± 0.37 µM.

Molecule `COc1ccc(-c2cc(-c3ccc(OC)c(OC)c3)c(C#N)c(OCC(=O)NNC(=S)SCCN3CCCCC3)n2)cc1OC` [Compound 7d, 2-(Piperidin-1-yl)-ethyl-2-[2-(3-cyano-4,6-bis(3,4-dimethoxyphenyl)pyridin-2-yloxy)acetyl]hydrazinecarbo-dithioate] showed a melting point of 160 to 162 °C. The half-maximal inhibitory concentration (IC50) in data set [1] was 35.5 ± 1.03 µM. In data set [2], this molecule returned a 50% inhibitory concentration (IC50) of 10.1 ± 0.98 µM. Also, in data set [3], the midpoint of inhibition, the IC50, lay at 14.3 ± 0.95 µM. 11.2 ± 1.26 µM corresponded to half-maximal inhibition in data set [4] (IC50). This molecule also registered an IC50 in data set [5] of 25 ± 1.33 µM.

`COc1ccc(C=NNC(=O)COc2nc(-c3ccc(OC)c(OC)c3)cc(-c3ccc(OC)c(OC)c3)c2C#N)cc1OC` [Compound 8b, 2-[3-Cyano-4,6-bis(3,4-dimethoxyphenyl)pyridin-2-yl]oxy-N'-(3,4-dimethoxybenzylidene)acetohydrazide] had a melting point of 190 to 192 °C. The molecule further yielded an IC50 in data set [1] of 32.3 ± 0.87 µM. For the same molecule, in data set [2], half-maximal inhibition (IC50) required 10.2 ± 0.92 µM. Also, the IC50 in data set [3] came out at 9.31 ± 0.98 µM. This molecule gave an IC50 in data set [4] of 25.2 ± 0.89 µM. In data set [5], this molecule returned a half-maximal inhibitory concentration (IC50) of 14.2 ± 0.91 µM.

Values taken from article PMC6274259, “New 3-Cyano-2-Substituted Pyridines Induce Apoptosis in MCF 7 Breast Cancer Cells” (Molecules, 2016).
